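Where inhibition never reached the appropriate level, the endpoint shown equals the highest concentration tested. Otherwise, values were interpolated linearly from a five-concentration, 48-hour dose response in 96-well plates. At the GI50, growth is halved.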 Calls of active or inactive are those of the source. No stated cut-off is given here; in the data, active = GI50 up to about 1.1 µM and inactive = higher.
Columns and labels:
Test in all cases: inhibition of tumour cell growth, NCI panel, 48 h
UACC-62 = system: UACC-62
K562 = system: K562
786-0 = system: 786-0
TK-10 = system: TK-10
RXF 393 = system: RXF 393
SF-295 = system: SF-295
SK-MEL-2 = system: SK-MEL-2
SN12C = system: SN12C
NCI-H522 = system: NCI-H522
RPMI-8226 = system: RPMI-8226
U-251 = system: U-251
MDA-MB-435 = system: MDA-MB-435
ACHN = system: ACHN
UO-31 = system: UO-31
SR = system: SR
MCF7 = system: MCF7
HOP-92 = system: HOP-92
IGROV-1 = system: IGROV-1
DU-145 = system: DU-145
M14 = system: M14
HCT-15 = system: HCT-15
SK-MEL-28 = system: SK-MEL-28
SF-268 = system: SF-268
OVCAR-8 = system: OVCAR-8
NCI/ADR-RES = system: NCI/ADR-RES
A549 = system: A549
EKVX = system: EKVX
BT-549 = system: BT-549
SNB-19 = system: SNB-19
OVCAR-3 = system: OVCAR-3
Hs-578T = system: Hs-578T
CCRF-CEM = system: CCRF-CEM
KM12 = system: KM12
HCT-116 = system: HCT-116
NCI-H460 = system: NCI-H460
CAKI-1 = system: CAKI-1
MDA-MB-231 = system: MDA-MB-231
SF-539 = system: SF-539
LOX IMVI = system: LOX IMVI
OVCAR-5 = system: OVCAR-5
COLO 205 = system: COLO 205
SNB-75 = system: SNB-75
OVCAR-4 = system: OVCAR-4
Malme-3M = system: Malme-3M
PC-3 = system: PC-3
SK-MEL-5 = system: SK-MEL-5
HT-29 = system: HT-29
MOLT-4 = system: MOLT-4
A498 = system: A498
HOP-62 = system: HOP-62
SK-OV-3 = system: SK-OV-3
MDA-N = system: MDA-N
SW-620 = system: SW-620
T47D = system: T47D
NCI-H23 = system: NCI-H23
HCC 2998 = system: HCC 2998
HL-60 = system: HL-60
NCI-H226 = system: NCI-H226
UACC-257 = system: UACC-257

Structure (SMILES): CC(C)(C)c1ccc(O)c(C[N+](C)(C)C)c1
- GI50 (UACC-62): > 100 µM (inactive)
- GI50 (K562): 95.5 µM (inactive)
- GI50 (786-0): > 100 µM (inactive)
- GI50 (TK-10): > 100 µM (inactive)
- GI50 (RXF 393): > 100 µM (inactive)
- GI50 (SF-295): > 100 µM (inactive)
- GI50 (SK-MEL-2): > 100 µM (inactive)
- GI50 (SN12C): > 100 µM (inactive)
- GI50 (NCI-H522): 34.3 µM (inactive)
- GI50 (RPMI-8226): 63.2 µM (inactive)
- GI50 (U-251): > 100 µM (inactive)
- GI50 (MDA-MB-435): > 100 µM (inactive)
- GI50 (ACHN): > 100 µM (inactive)
- GI50 (UO-31): > 100 µM (inactive)
- GI50 (SR): > 100 µM (inactive)
- GI50 (MCF7): > 100 µM (inactive)
- GI50 (HOP-92): > 100 µM (inactive)
- GI50 (IGROV-1): > 100 µM (inactive)
- GI50 (DU-145): > 100 µM (inactive)
- GI50 (M14): > 100 µM (inactive)
- GI50 (HCT-15): > 100 µM
- GI50 (SK-MEL-28): > 100 µM (inactive)
- GI50 (SF-268): > 100 µM (inactive)
- GI50 (OVCAR-8): > 100 µM (inactive)
- GI50 (NCI/ADR-RES): > 100 µM (inactive)
- GI50 (A549): > 100 µM (inactive)
- GI50 (EKVX): 93.1 µM (inactive)
- GI50 (BT-549): > 100 µM (inactive)
- GI50 (SNB-19): > 100 µM (inactive)
- GI50 (OVCAR-3): 68.9 µM (inactive)
- GI50 (Hs-578T): > 100 µM (inactive)
- GI50 (CCRF-CEM): > 100 µM (inactive)
- GI50 (KM12): > 100 µM (inactive)
- GI50 (HCT-116): > 100 µM (inactive)
- GI50 (NCI-H460): > 100 µM (inactive)
- GI50 (CAKI-1): > 100 µM (inactive)
- GI50 (MDA-MB-231): > 100 µM (inactive)
- GI50 (SF-539): > 100 µM (inactive)
- GI50 (LOX IMVI): > 100 µM (inactive)
- GI50 (OVCAR-5): > 100 µM (inactive)
- GI50 (COLO 205): > 100 µM (inactive)
- GI50 (SNB-75): > 100 µM (inactive)
- GI50 (OVCAR-4): > 100 µM (inactive)
- GI50 (Malme-3M): > 100 µM (inactive)
- GI50 (PC-3): > 100 µM (inactive)
- GI50 (SK-MEL-5): 49.4 µM (inactive)
- GI50 (HT-29): > 100 µM (inactive)
- GI50 (MOLT-4): > 100 µM (inactive)
- GI50 (A498): 47.5 µM (inactive)
- GI50 (HOP-62): > 100 µM (inactive)
- GI50 (SK-OV-3): > 100 µM (inactive)
- GI50 (MDA-N): > 100 µM (inactive)
- GI50 (SW-620): > 100 µM (inactive)
- GI50 (T47D): > 100 µM (inactive)
- GI50 (NCI-H23): > 100 µM (inactive)

Structure (SMILES): O=C(Oc1c(Br)cc(Br)cc1C(=O)Oc1ccccc1)C(=O)Oc1c(Br)cc(Br)cc1C(=O)Oc1ccccc1
- GI50 (UACC-62): 24.8 µM (inactive)
- GI50 (K562): 12.7 µM (inactive)
- GI50 (786-0): 19.6 µM (inactive)
- GI50 (TK-10): 49.2 µM (inactive)
- GI50 (RXF 393): 12.9 µM (inactive)
- GI50 (SF-295): 31 µM (inactive)
- GI50 (SK-MEL-2): 26.7 µM (inactive)
- GI50 (SN12C): 30.3 µM (inactive)
- GI50 (NCI-H522): 14.4 µM (inactive)
- GI50 (RPMI-8226): 15.5 µM (inactive)
- GI50 (U-251): 13.1 µM (inactive)
- GI50 (MDA-MB-435): 10.1 µM (inactive)
- GI50 (ACHN): 27.7 µM (inactive)
- GI50 (UO-31): 16 µM (inactive)
- GI50 (SR): 18.5 µM (inactive)
- GI50 (MCF7): 26.7 µM (inactive)
- GI50 (HCC 2998): 31 µM (inactive)
- GI50 (HOP-92): 12 µM (inactive)
- GI50 (IGROV-1): 26.7 µM (inactive)
- GI50 (HL-60): < 0.01 µM (active)
- GI50 (DU-145): 37.5 µM (inactive)
- GI50 (M14): 34.1 µM (inactive)
- GI50 (HCT-15): 20.7 µM
- GI50 (SK-MEL-28): 28.7 µM (inactive)
- GI50 (SF-268): 29 µM (inactive)
- GI50 (OVCAR-8): 30.8 µM (inactive)
- GI50 (NCI/ADR-RES): 38.9 µM (inactive)
- GI50 (A549): 14.5 µM (inactive)
- GI50 (EKVX): 26.2 µM (inactive)
- GI50 (BT-549): 18.5 µM (inactive)
- GI50 (SNB-19): 20 µM (inactive)
- GI50 (OVCAR-3): 24.3 µM (inactive)
- GI50 (Hs-578T): 34.8 µM (inactive)
- GI50 (KM12): 24 µM (inactive)
- GI50 (HCT-116): 14.4 µM (inactive)
- GI50 (NCI-H460): > 100 µM (inactive)
- GI50 (CAKI-1): 19.7 µM (inactive)
- GI50 (MDA-MB-231): 12.1 µM (inactive)
- GI50 (SF-539): 19.7 µM (inactive)
- GI50 (OVCAR-5): 24.4 µM (inactive)
- GI50 (COLO 205): 21.6 µM (inactive)
- GI50 (NCI-H226): 16 µM (inactive)
- GI50 (Malme-3M): 20.9 µM (inactive)
- GI50 (PC-3): 20.2 µM (inactive)
- GI50 (SK-MEL-5): 17.3 µM (inactive)
- GI50 (HT-29): 32.7 µM (inactive)
- GI50 (MOLT-4): 14.9 µM (inactive)
- GI50 (HOP-62): 16.2 µM (inactive)
- GI50 (SK-OV-3): 33.8 µM (inactive)
- GI50 (MDA-N): 27.5 µM (inactive)
- GI50 (SW-620): 19.8 µM (inactive)
- GI50 (T47D): 27.1 µM (inactive)
- GI50 (UACC-257): 39 µM (inactive)
- GI50 (NCI-H23): 0.621 µM (active)
